Data reported in EP0099766A1, “1-3-Dihydro 4-(1-hydroxy-2-amino-ethyl)-2H-indol-2-one derivatives, their salts, process for their preparation, their use as medicines and compositions containing them” (ROUSSEL-UCLAF, priority 1982, dated 1984).

What was measured:
souris = settings: mouse, in vivo, po, 11520 min
Description: On a évalué les doses létales DLO des différents composés testés après administration par voie orale chez la souris.
On appelle DLO la dose maximale ne provoquant aucune mortalité en 8 jours.

[1] = test system: oédème plantaire provoqué par la carraghénine chez le rat; assay: Anti-inflammatory activity: carrageenan-induced plantar oedema; assay type: in vivo; settings: dose 0,4 mg/kg oral, given simultaneously with carrageenan; rat paw volume versus controls
Description: L'activité anti-inflammatoire a été déterminée sur le test de l'oédème plantaire provoqué par la carraghénine chez le rat.
On administre, à des rats mâles pesant de 130 à 150 g, 0,05 cm3 d'une suspension stérile à 1% de carraghénine dans l'articulation tibio-tarsienne d'une patte postérieure.
Simultanément, on administre le produit à étudier dans une suspension de carboxyméthylcellulose à 0,25% et de Tween à 0,02% par voie orale.
Le volume de la patte est mesuré avant l'administration, puis 2 heures, 4 heures, 6 heures, 8 heures et 24 heures après.
L'intensité de l'inflammation est maxima 4 à 6 heures après l'injection de carraghénine. La différence du volume des pattes des animaux traités et des témoins met en évidence l'action anti inflammatoire du médicament.

[2] = test system: rats mâles Sprague-Dawley; assay: Anti-ulcer activity: Shay method modified by Guth (pylorus ligation plus aspirin/HCl gastric lesions); assay type: in vivo; settings: dose 0,4 mg/kg per os one hour before pylorus ligation; aspirin 200 mg/kg per os; Sprague-Dawley rat; mean ulcer score
Procedure: L'essai est effectué selon la méthode de Shay modifiée par GUTH (GUTH, P.H. et coll, Topical aspirin plus HCl gastric lesions in the rat. Gastroenterology 1979,76, 88-93.) Des rats mâles Sprague-Dawley d'un poids voisin de 250 g, à jeun depuis 48 heures sauf boisson, ont été utilisés. On pratique sous légère anesthésie à l'halothane, la ligature du pylore et une . heure plus tard, on administre l'aspirine per os à la dose de 200 mg/kg, en suspension dans la carboxyméthylcellulose à 0,25% renfermant 15% d'acide chlorhydrique N. Deux heures plus tard, on sacrifie les animaux, prélève et examine les estomacs. Chaque lésion ulcéreuse est cotée de la façon suivante :
La somme des cotations est calculée pour chaque estomac, et le score moyen est établi.pour chaque lot.
Les substances à étudier sont administrées per os une heure avant la ligature.

| Structure (SMILES) | DL0 (souris) [mg/kg] | protège les animaux traités (activité anti-inflammatoire) [1] [%] | protège les animaux traités (activité antiulcéreuse) [2] [%] |
| --- | --- | --- | --- |
| O=C1Cc2c(cccc2C(O)CNCC2CC2)N1 (stereo not shown) [exemple 5, Chlorhydratede 1,3-dihydro 4-/1-hydroxy 2-(cyclo-propylméthylamino) éthyl/ 2H-indol-2-one] | 200 | – | – |
| CNCC(O)c1cccc2c1CC(=O)N2 (stereo not shown) [compound 3, 1,3-dihydro 4-(1-hydroxy 2-(méthylamino)éthyl) 2H-indol-2-one] | > 400 | – | – |
| CC(C)NCC(O)c1cccc2c1CC(=O)N2 (stereo not shown) [exemple 1, 1,3-dihydro 4-/2-(1-méthyléthylamino) 1-hydroxy éthyl/ 2H-indol-2-one] | 200 | 61 | – |
| CCNCC(O)c1cccc2c1CC(=O)N2 (stereo not shown) [compound 7, Chlorhydratede 1,3-dugtdri 4-/(1-hydroxy 2-éthyl-amino) éthyl/ 2H-indol-2-one] | > 400 | – | – |
| CCCNCC(O)c1cccc2c1CC(=O)N2 (stereo not shown) [exemple 2, 1,3-dihydro 4-/1-hydroxy 2-(propylamino)éthyl/ 2H-indol-2-one] | 200 | – | 60 |
